Laboratory results as given in publication PMC9896555, “Cyclic Acetals as Novel Long-Lasting Mosquito Repellents” (Journal of Agricultural and Food Chemistry, 2023).
Like-named read-outs stand apart in the source and are kept apart here.

Tests used:
Aedes albopictus [1] = assay: Protection time at 0.17 mg/cm2, human-bait technique; assay type: in vivo; conditions: for pest or weed control at 0.17 mg/cm2, 0.17 mg/cm2: Aedes albopictus, topical, read-out: Protection time PE%; for Average PT >95% (% coefficient of variation) / Estimated 100% PT (complete protection time, mean±SE): at the dose of 0.17mg/cm2; for Estimated 100% PT (complete protection time, mean±SE): Kaplan–Meier estimate; for Protection time (95% protection): dose of 0.17 mg/cm^2, tests ended after 8 h
Procedure: To evaluate the protection time of derivatives, the PE % was measured with 100 μL of a 5% ethanol solution, corresponding to 0.17 mg/cm^2 of exposed skin, under the same laboratory conditions. Mosquito-exposed skin was treated with 100 μL of ethanol, as the negative hand control. For each volunteer (up to 8), the test was performed every hour, up to 8 h from the application. The protection time of DEET and Icaridin was measured under the same conditions. Since these trials were run in parallel with those aimed to profile the cytotoxicity of the compounds (paragraph 2.6), we interrupted the experiments for those compounds showing to have higher cytotoxicity than Icaridin and DEET as soon as the results were available. For this reason, the number of volunteers differs among the compounds.
The average time until protection which was higher than 95% protection time was considered for each compound. Moreover, for the compounds tested on at least three volunteers, the complete (100%) protection time was also estimated (SPSS 28.01.0) using the Kaplan–Meier survivor function procedure.[22]

Aedes albopictus [2] = assay: Effective dose / protection efficacy, human-bait technique; assay type: in vivo; conditions: for pest or weed control at 0.081 µg/cm2, 0.081 µg/cm2 / pest or weed control at 0.17 µg/cm2, 0.17 µg/cm2 / pest or weed control at 0.33 µg/cm2, 0.33 µg/cm2 / pest or weed control at 0.5 µg/cm2, 0.5 µg/cm2 / pest or weed control at 0.83 µg/cm2, 0.83 µg/cm2 / pest or weed control at 1.7 µg/cm2, 1.7 µg/cm2 / pest or weed control at 8.3 µg/cm2, 8.3 µg/cm2 / pest or weed control at 16.7 µg/cm2, 16.7 µg/cm2 / pest or weed control at 83.3 µg/cm2, 83.3 µg/cm2: Aedes albopictus, topical, read-out: Protection efficacy PE%; for 100% PE: Table S1; for Protection efficacy (dose to obtain complete protection (100%) from bite attempts): applied on skin of volunteers, 3 min exposure
Procedure: The repellence of DEET, Icaridin (both supplied by Istituto Biochimico VEBI s.r.l.), acetals, and the synthesized hydroxyacetals was evaluated againstAedes albopictususing the human-bait technique (to simulate the condition of human skin on which repellents will be applied).[22]A. albopictuswas reared and tested at 26 ± 2 °C, ≥60 ± 10% relative humidity (RH), and at 14:10 h light/dark photoperiod, within Plexiglas cylindrical laboratory cages (35 cm diameter, 60 cm length) with one end closed by a net. During the tests, cages contained ≈150 nulliparous, 4–7 day-old, nonblood-fed females. For each compound to be tested, up to six volunteers participated in the trial.
The study was approved by the Regional Ethics Committee for Clinical Trials of Tuscany Region with the registered number 20383. Volunteers agreed to take part in the experiments following informed consent; only volunteers non-allergic to mosquito bites participated in the trials. On the day of the bioassay, they had no contact with lotions, perfumes, oils, or perfumed soaps. They wore latex surgical gloves, in which a dorsal square area of 30 cm^2 was cut open. Mosquito-exposed skin was treated with 50 μL of ethanol, as the negative hand control. The other hand was treated with 50 μL of the tested compounds in ethanol solution (dosages corresponding to 0.081, 0.17, 0.33, 0.5, 0.83, 1.7, 8.3, 16.7, and 83.3 μg/cm^2). Both hands were presented in the same test cage. The number of probing mosquitoes in a 3 min exposure period was recorded. During each test, the control and the treated hand were presented interchanged to verify the mosquitoes’ readiness to bite. Trials were considered valid only if at least 30 mosquitoes performed probing behavior on the control hand before each repellent dosage was tested. The protection efficacy (PE %) obtained from all replicates was calculated, according to the WHO guidelines[31] using this formula [drawing 1]
To evaluate the protection efficacy, volunteers applied increasing doses of the compounds to the skin on the back of their hands (30 cm^2, while the rest was covered with a rubber glove) and counted the number of mosquitoes attempting to bite; the solvent only was used on the control hand. The protection (percentage of repelled mosquitoes) was calculated as reported in the Material and Methods section.

HaCaT cells = assay: Cytotoxicity on human keratinocytes (MTS); assay type: cell-based; conditions: 82 μg/mL, 24 h
Procedure: HaCaT cells were cultured in 5% CO2 at 37 °C in Dulbecco’s modified Eagle’s medium (DMEM), supplemented with 10% fetal bovine serum (FBS), 1% L-glutamine ([…]), and 1% penicillin–streptomycin (Thermo Fisher Scientific, Rodano, Milan, Italy). […] Experiments were performed in triplicate.

SMILES: CC1(CO)COC2(CCCCC2)OC1 [6b]
- pest or weed control at 0.17 mg/cm2, 0.17 mg/cm2 (Aedes albopictus [1]; 0.17mg/cm2, 1 h): 100%
- pest or weed control at 0.17 mg/cm2, 0.17 mg/cm2 (Aedes albopictus [1]; 0.17mg/cm2, 2 h): 99.1%
- pest or weed control at 0.17 mg/cm2, 0.17 mg/cm2 (Aedes albopictus [1]; 0.17mg/cm2, 3 h): 100%
- pest or weed control at 0.17 mg/cm2, 0.17 mg/cm2 (Aedes albopictus [1]; 0.17mg/cm2, 4 h): 100%
- pest or weed control at 0.17 mg/cm2, 0.17 mg/cm2 (Aedes albopictus [1]; 0.17mg/cm2, 5 h): 99.4%
- pest or weed control at 0.17 mg/cm2, 0.17 mg/cm2 (Aedes albopictus [1]; 0.17mg/cm2, 6 h): 90.8%
- pest or weed control at 0.17 mg/cm2, 0.17 mg/cm2 (Aedes albopictus [1]; 0.17mg/cm2, 7 h): 97.3%
- pest or weed control at 0.17 mg/cm2, 0.17 mg/cm2 (Aedes albopictus [1]; 0.17mg/cm2, 8 h): 95.1%
- Average PT >95% (% coefficient of variation) (Aedes albopictus [1]): 480 (3.3) min
- Estimated 100% PT (complete protection time, mean±SE) (Aedes albopictus [1]): 375 ± 89 min
- Protection time (95% protection) (Aedes albopictus [1]): 8 h
- pest or weed control at 0.081 µg/cm2, 0.081 µg/cm2 (Aedes albopictus [2]): 48.4%
- pest or weed control at 0.17 µg/cm2, 0.17 µg/cm2 (Aedes albopictus [2]): 62.7%
- pest or weed control at 0.33 µg/cm2, 0.33 µg/cm2 (Aedes albopictus [2]): 77%
- pest or weed control at 0.5 µg/cm2, 0.5 µg/cm2 (Aedes albopictus [2]): 64.9%
- pest or weed control at 0.83 µg/cm2, 0.83 µg/cm2 (Aedes albopictus [2]): 100%
- pest or weed control at 1.7 µg/cm2, 1.7 µg/cm2 (Aedes albopictus [2]): 100%
- pest or weed control at 8.3 µg/cm2, 8.3 µg/cm2 (Aedes albopictus [2]): 100%
- pest or weed control at 16.7 µg/cm2, 16.7 µg/cm2 (Aedes albopictus [2]): 100%
- pest or weed control at 83.3 µg/cm2, 83.3 µg/cm2 (Aedes albopictus [2]): 100%
- 100% PE (Aedes albopictus [2]): 0.83 µg/cm2
- Protection efficacy (dose to obtain complete protection (100%) from bite attempts) (Aedes albopictus [2]): 0.83 μg/cm^2
- survival of keratocytes (HaCaT cells): > 88%

SMILES: CCCCC1(CCCC)OCC(CC)(CO)CO1 [16c]
- pest or weed control at 0.17 mg/cm2, 0.17 mg/cm2 (Aedes albopictus [1]; 0.17mg/cm2, 1 h): 99%
- pest or weed control at 0.17 mg/cm2, 0.17 mg/cm2 (Aedes albopictus [1]; 0.17mg/cm2, 2 h): 96.3%
- pest or weed control at 0.17 mg/cm2, 0.17 mg/cm2 (Aedes albopictus [1]; 0.17mg/cm2, 3 h): 97.6%
- pest or weed control at 0.17 mg/cm2, 0.17 mg/cm2 (Aedes albopictus [1]; 0.17mg/cm2, 4 h): 97.1%
- pest or weed control at 0.17 mg/cm2, 0.17 mg/cm2 (Aedes albopictus [1]; 0.17mg/cm2, 5 h): 94.8%
- pest or weed control at 0.17 mg/cm2, 0.17 mg/cm2 (Aedes albopictus [1]; 0.17mg/cm2, 6 h): 95.4%
- pest or weed control at 0.17 mg/cm2, 0.17 mg/cm2 (Aedes albopictus [1]; 0.17mg/cm2, 7 h): 95.1%
- pest or weed control at 0.17 mg/cm2, 0.17 mg/cm2 (Aedes albopictus [1]; 0.17mg/cm2, 8 h): 99%
- Average PT >95% (% coefficient of variation) (Aedes albopictus [1]): 480 (1.4) min
- Protection time (95% protection) (Aedes albopictus [1]): 8 h
- pest or weed control at 0.081 µg/cm2, 0.081 µg/cm2 (Aedes albopictus [2]): 6.06%
- pest or weed control at 0.17 µg/cm2, 0.17 µg/cm2 (Aedes albopictus [2]): 59.5%
- pest or weed control at 0.33 µg/cm2, 0.33 µg/cm2 (Aedes albopictus [2]): 8.39%
- pest or weed control at 0.5 µg/cm2, 0.5 µg/cm2 (Aedes albopictus [2]): 36.2%
- pest or weed control at 0.83 µg/cm2, 0.83 µg/cm2 (Aedes albopictus [2]): 52.9%
- pest or weed control at 1.7 µg/cm2, 1.7 µg/cm2 (Aedes albopictus [2]): 95.5%
- pest or weed control at 8.3 µg/cm2, 8.3 µg/cm2 (Aedes albopictus [2]): 100%
- pest or weed control at 16.7 µg/cm2, 16.7 µg/cm2 (Aedes albopictus [2]): 100%
- pest or weed control at 83.3 µg/cm2, 83.3 µg/cm2 (Aedes albopictus [2]): 100%
- 100% PE (Aedes albopictus [2]): 1.7 µg/cm2
- Protection efficacy (dose to obtain complete protection (100%) from bite attempts) (Aedes albopictus [2]): 8.3 μg/cm^2
- survival of keratocytes (HaCaT cells): > 88%

SMILES: CCCCCCCCCC1(C)OCC(CO)O1 (stereo not drawn) [22a]
- pest or weed control at 0.17 mg/cm2, 0.17 mg/cm2 (Aedes albopictus [1]; 0.17mg/cm2, 1 h): 100%
- pest or weed control at 0.17 mg/cm2, 0.17 mg/cm2 (Aedes albopictus [1]; 0.17mg/cm2, 2 h): 100%
- pest or weed control at 0.17 mg/cm2, 0.17 mg/cm2 (Aedes albopictus [1]; 0.17mg/cm2, 3 h): 98.9%
- pest or weed control at 0.17 mg/cm2, 0.17 mg/cm2 (Aedes albopictus [1]; 0.17mg/cm2, 4 h): 98.2%
- pest or weed control at 0.17 mg/cm2, 0.17 mg/cm2 (Aedes albopictus [1]; 0.17mg/cm2, 5 h): 95.2%
- pest or weed control at 0.17 mg/cm2, 0.17 mg/cm2 (Aedes albopictus [1]; 0.17mg/cm2, 6 h): 99.5%
- pest or weed control at 0.17 mg/cm2, 0.17 mg/cm2 (Aedes albopictus [1]; 0.17mg/cm2, 7 h): 96.6%
- pest or weed control at 0.17 mg/cm2, 0.17 mg/cm2 (Aedes albopictus [1]; 0.17mg/cm2, 8 h): 90%
- Average PT >95% (% coefficient of variation) (Aedes albopictus [1]): 420 (3.5) min
- Estimated 100% PT (complete protection time, mean±SE) (Aedes albopictus [1]): 380 ± 105 min
- Protection time (95% protection) (Aedes albopictus [1]): 7 h
- pest or weed control at 0.081 µg/cm2, 0.081 µg/cm2 (Aedes albopictus [2]): 2.83%
- pest or weed control at 0.17 µg/cm2, 0.17 µg/cm2 (Aedes albopictus [2]): 32.6%
- pest or weed control at 0.33 µg/cm2, 0.33 µg/cm2 (Aedes albopictus [2]): 50%
- pest or weed control at 0.5 µg/cm2, 0.5 µg/cm2 (Aedes albopictus [2]): 37.5%
- pest or weed control at 0.83 µg/cm2, 0.83 µg/cm2 (Aedes albopictus [2]): 65.4%
- pest or weed control at 1.7 µg/cm2, 1.7 µg/cm2 (Aedes albopictus [2]): 94.2%
- pest or weed control at 8.3 µg/cm2, 8.3 µg/cm2 (Aedes albopictus [2]): 100%
- pest or weed control at 16.7 µg/cm2, 16.7 µg/cm2 (Aedes albopictus [2]): 100%
- pest or weed control at 83.3 µg/cm2, 83.3 µg/cm2 (Aedes albopictus [2]): 100%
- Protection efficacy (dose to obtain complete protection (100%) from bite attempts) (Aedes albopictus [2]): 8.3 μg/cm^2

SMILES: CCN(CC)C(=O)c1cccc(C)c1 [DEET, N,N-diethyl-3-methylbenzamide, reference compound]
- pest or weed control at 0.17 mg/cm2, 0.17 mg/cm2 (Aedes albopictus [1]; 0.17mg/cm2, 1 h): 98%
- pest or weed control at 0.17 mg/cm2, 0.17 mg/cm2 (Aedes albopictus [1]; 0.17mg/cm2, 2 h): 87.4%
- pest or weed control at 0.17 mg/cm2, 0.17 mg/cm2 (Aedes albopictus [1]; 0.17mg/cm2, 3 h): 81.4%
- pest or weed control at 0.17 mg/cm2, 0.17 mg/cm2 (Aedes albopictus [1]; 0.17mg/cm2, 4 h): 59.4%
- Average PT >95% (% coefficient of variation) (Aedes albopictus [1]): 120 (1.4) min
- Estimated 100% PT (complete protection time, mean±SE) (Aedes albopictus [1]): 120 ± 26 min
- Protection time (95% protection) (Aedes albopictus [1]): 2 h
- pest or weed control at 0.081 µg/cm2, 0.081 µg/cm2 (Aedes albopictus [2]): 18.9%
- pest or weed control at 0.17 µg/cm2, 0.17 µg/cm2 (Aedes albopictus [2]): 34.7%
- pest or weed control at 0.33 µg/cm2, 0.33 µg/cm2 (Aedes albopictus [2]): 67.3%
- pest or weed control at 0.5 µg/cm2, 0.5 µg/cm2 (Aedes albopictus [2]): 74.4%
- pest or weed control at 0.83 µg/cm2, 0.83 µg/cm2 (Aedes albopictus [2]): 79.8%
- pest or weed control at 1.7 µg/cm2, 1.7 µg/cm2 (Aedes albopictus [2]): 88.6%
- pest or weed control at 8.3 µg/cm2, 8.3 µg/cm2 (Aedes albopictus [2]): 100%
- pest or weed control at 16.7 µg/cm2, 16.7 µg/cm2 (Aedes albopictus [2]): 100%
- pest or weed control at 83.3 µg/cm2, 83.3 µg/cm2 (Aedes albopictus [2]): 100%
- 100% PE (Aedes albopictus [2]): 8.3 µg/cm2
- Protection efficacy (dose to obtain complete protection (100%) from bite attempts) (Aedes albopictus [2]): 8.3 μg/cm^2
